Reference: patent publication US20220402867A1, “SULFO-SUBSTITUTED BIARYL COMPOUND OR SALT THEREOF, PREPARATION METHOD THEREFOR, AND USE THEREOF” (Shanghai Litedd Co., Ltd., priority 2019, published 2022)
Read-outs that look alike come from different tables or passages of the source.

Tests used:
GST-RORγ LBD (263-509) = target: T1, GST-RORγ LBD (263-509) (Homo sapiens, UniProt P51449); assay: TR-FRET assay of agonistic activity on RORγ receptor; type: biochemical
T1 construct: GST-RORγ LBD ((263-509) (produced at ChemPartner))
T1 sequence (P51449 263-509): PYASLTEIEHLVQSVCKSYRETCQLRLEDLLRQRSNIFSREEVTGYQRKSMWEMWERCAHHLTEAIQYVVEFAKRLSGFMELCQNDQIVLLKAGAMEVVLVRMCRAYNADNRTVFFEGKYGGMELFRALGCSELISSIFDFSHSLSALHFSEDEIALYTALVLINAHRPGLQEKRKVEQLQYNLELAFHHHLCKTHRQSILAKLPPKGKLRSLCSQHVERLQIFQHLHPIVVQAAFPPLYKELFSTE
Method: A time-resolved fluorescence resonance energy transfer (TR-FRET) assay was used for the compounds of the present disclosure, to determine the agonistic activity of the compounds on the RORγ protein receptor. The agonistic activity is expressed by the concentration for 50% of maximal effect (EC50). The experiment was performed basically with reference to the methods described in ONCOIMMUNOLOGY, 2016, VOL. 5, NO. 12, e1254854.
1. Preparation of RORγ Basal Buffer
A 100 mL basal buffer was prepared, mixed homogeneously and stored for use;
The compounds of the examples shown in the table below were prepared into solutions with DMSO as the solvent, serially diluted at 3-fold dilution to 10 concentrations starting from 10 mM, and added to the corresponding wells of a 384-well plate with each concentration of each compound in duplicate;
a. A 75 nM solution of GST-RORγ LBD ((263-509) (produced at ChemPartner)) and a 4 nM solution of Biotin-SRC1 (Glsbiochem) were prepared with the above basal buffer. The two solutions were 1:1 mixed evenly, and 10 μL of the mixed solution was added into each well of the above 384-well plate. The plate was immediately centrifugated at 1000 rpm for 10 seconds; b. A 1 nM solution of Anti-GST Eu (Cisbio, #61GSTKLA) and a 50 nM solution of SA-APC (Cisbio, […]) were prepared with the above basal buffer. The two solutions were 1:1 mixed evenly, and 10 μL of the mixed solution was added into each well of the above 384-well plate. The plate was immediately centrifugated at 1000 rpm for 10 seconds; c. The resulting 384-well plate was incubated at room temperature for 15 minutes. Data were read on an Envision microplate reader, EC50 values and E max % were calculated.
a. Readings were taken at 665 nm and 615 nm wavelengths respectively on the Envision Microplate Reader, and the ratios between them were normalized. b. Calculation was carried out with the following equation: […]
wherein X is the reading of compounds, Min is the reading of the blank solution, and Max is the reading of 10 μM SRC. c. The concentration-response curve data were fitted by a four-parameter logistic nonlinear regression model, and Emax was the TOP value of the fitted curve.

[1] = Metabolic stability in mouse liver microsomes; type: in vitro ADME, CD-1 mice; conditions: for half-life: CD-1; for microsomal CLint: CD-1, 0.5 mg protein/mL
Description: (§1) According to standard methods of in vitro metabolic stability studies in the art, eg., the methods described in Kerns, Edward H. and Di Li (2008). Drug-like Properties: Concepts, Structure Design and Methods: from ADME to Toxicity Optimization. San Diego: Academic Press; Di, Li et al., Optimization of a Higher Throughput Microsomal Stability Screening Assay for Profiling Drug Discovery Candidates, J. Biomol. Screen. 2003, The method described in 8(4), 453, the liver microsomal metabolic stability test of the compounds of the present disclosure was carried out analogously as follows.
(§2) The incubation system contained 0.5 mg protein/mL microsomes, cofactors, and PBS, was pre-incubated at 37° C. for 3 min, and then added the substrate (i.e., the test compounds) to initiate the reaction. Samples were taken at 0, 1, 5, 10, 15, 20, 30 and 60 min from the start of the reaction, and an appropriate terminator was added to terminate the reaction.
(§3) The terminator was an ice acetonitrile solution containing 100 ng/mL tolbutamide and 100 ng/mL labetalol.
(§4) Sample treatment (n=3): each appropriate sample was added, vortexed and centrifuged at high speed. The supernatants were collected, and the substrate was detected by HPLC-MS/MS. The peak area at the 0 min was taken as 100%. The peak areas at other time points were converted to percentage of the remaining amount. The natural logarithms of the percentage of remaining amount at each time point was plotted against the incubation time, and the slope (−k) was calculated by linear regression. Then, Clint (uL/min/mg) and half-life (T½, min) of the compounds were calculated following the equation of the inherent clearance rate (Clint)=(k* volume of incubation solution)/mass of liver microsomes.

[2] = target: T2, RORγt (RORγ-LBD chimeric receptor) (Homo sapiens, UniProt P51449); assay: Luciferase reporter gene assay of RORγt agonistic activity in HEK293T cells; type: cell-based; set-up: Emax: dose or concentration left out as unconfirmed; conditions: for Emax: HEK-293T
T2 construct: host or cells: HEK293T
T2 sequence (P51449 269-508 limits assumed): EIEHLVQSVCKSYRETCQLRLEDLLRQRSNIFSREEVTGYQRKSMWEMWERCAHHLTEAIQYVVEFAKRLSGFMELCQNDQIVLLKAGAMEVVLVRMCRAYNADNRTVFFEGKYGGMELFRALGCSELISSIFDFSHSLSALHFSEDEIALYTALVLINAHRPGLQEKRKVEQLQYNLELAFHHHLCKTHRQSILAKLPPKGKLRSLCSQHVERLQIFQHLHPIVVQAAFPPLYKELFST
Description: This assay was basically carried out according to the method described in the literature ONCOIMMUNOLOGY, 2016, VOL. 5, NO. 12, e1254854.
The RORγ-LBD coding sequence was inserted into pBIND plasmid (Promega, E1581). This expression vector and a reporter vector (pGL4.35 carrying a stably integrated luciferase reporter gene driven by GAL4 promoter) were co-expressed in HEK293T host cells. When the agonist binds to the corresponding chimeric receptor, the chimeric receptor binds to the GAL4 binding site on the reporter gene carrier and stimulates reporter gene expression. The agonistic activity of the compound on RORγ was determined according to the intensity of the chemiluminescence signal.
1.1 All test compounds were serially diluted at 3-fold dilution with DMSO, with 10 serial dilutions starting from 10 mM; LIT-00093 solution was prepared similarly. […] 1.4 The compound plate was sealed and shaken for 5 min.
Cells were cultured according to ATCC standard operation, and 6*10^6 HEK293T cells were seeded into 100 mm cell culture dishes, cultured overnight in a 37° C., 5% CO2 incubator, and then transfected. Compounds of corresponding concentrations were added for treatment, and the Steady-Glo™ kit (Lot E 2520) was used for further detection.
Chemiluminescence values were detected with Envision 2104; EC50 values were calculated.
% Activity was calculated with the following equation: […]
RLU: […] R L Upositive: average value of positive control R L Uvehicle: average value of negative control
The log values of the compound concentration and % Activity were fitted using Graphad 8.0, to calculate EC50s of the compounds.

[3] = Metabolic stability in human liver microsomes; type: in vitro ADME; conditions: for microsomal CLint: 0.5 mg protein/mL
Description: as §1, §2, §3, §4

[4] = Pharmacokinetic (PK) assay in mice; type: in vivo; conditions: CD-1 mice; for AUC(0-t) / Cmax / half-life / Vd / bioavailability: mouse, plasma; for Vd: values marked *, read-out: Vss; for bioavailability: Po 5 mg/kg vs IV 1 mg/kg
Method: The PK of each compound was determined as follows: 6 CD-1 mice (obtained from Shanghai Lingchang Biotechnology Co., Ltd.) were divided into two groups, 3 mice in each group. One group was administered intravenously at a dose of 1 mg/kg, and the vehicle was 5% DMSO/40% PEG400/55% (20% 3-CD); one group was administered by oral gavage at a dose of 5 mg/kg, and the vehicle was DMSO/1% methylcellulose (1:99). Blood samples were collected from saphenous vein of lower leg in each group at 0, 0.083, 0.25, 0.5, 1, 2, 4, 6, 8 and 24 h after administration. Approximately 40 μL of the blood samples were collected into anticoagulant tubes containing EDTA-K2. Immediately after collection, the tubes were inverted at least 5 times to ensure uniform mixing, and then placed on ice. The blood samples collected at each time point were centrifuged at 4° C., 8000 rpm for 5 minutes to obtain plasma. Another 1.5 mL centrifuge tube was marked with the compound name, animal number, and time point, and the plasma was transferred to this tube. The plasma was stored at −80° C. until analysis.
Compound concentrations in plasma were determined by UPLC-MS/MS method, and the pharmacokinetic parameters were calculated by Phoenix WinNolin 6.4 pharmacokinetic software on the obtained data.

human PBMC (Th17 cells) = assay: Th17 differentiation and IL-17 secretion in human PBMC; type: cell-based; conditions: IL-17 ELISA after 48 hours; for Emax: maximum activation rate
Method: Test procedure: PBMC cells were first thawed and plated, and then stimulated with stimulating factors (anti-hCD28: 5 μg/mL; rhTGF-β1: 5 ng/mL; rhIL-6: 20 ng/mL; rhIL-23: 10 ng/Ml) to differentiate to Th17, while adding different concentrations of compounds. All test compounds were serially diluted at 3-fold dilution with DMSO, with 8 serial dilutions starting from the maximum concentration 3 μM. The supermatants were collected after 48 hours for IL-17 ELISA detection, and compared with the solvent group, to determine the activation rate of the compounds on Th17 cells to secrete IL-17. EC50 values were fitted with Graphad8.0, and the TOP values fitted by the software was Emax %.

[5] = HEK293T, GAL4 luciferase reporter, read-out: EC50

Row | SMILES | % Remaining (T = 60 min) [1] [%] | half-life [1] [h] | EC50 [2, 5] [nM] | half-life [3] [h] | microsomal CLint [3] [µL/min/mg] | % Remaining (T = 60 min) [3] [%] | AUC(0-t) ([4]; IV 1 mg/kg) [ng·h/mL] | Cmax ([4]; IV 1 mg/kg) [ng/mL] | half-life ([4]; IV 1 mg/kg) [h] | Vd ([4]; IV 1 mg/kg) [L/kg] | bioavailability [4] [%] | AUC(0-t) ([4]; Po 5 mg/kg) [ng·h/mL] | Cmax ([4]; Po 5 mg/kg) [ng/mL] | half-life ([4]; Po 5 mg/kg) [h] | microsomal CLint [1] [µL/min/mg] | EC50 (human PBMC (Th17 cells)) [nM] | Emax (human PBMC (Th17 cells)) [%] | Emax [2] [%] | also measured
1 | CS(=O)(=O)c1ccc(-c2c(Cl)cc(NC(=O)Cc3ccc(S(=O)(=O)CC4CC4)cc3)cc2Cl)cc1 [Example 17, 2-(4-((Cyclopropylmethyl)sulfonyl)phenyl)-N-(2,6-dichloro-4′-(methylsulfonyl)-[1,1′-biphenyl]-4-yl)acetamide] | 15.30 | 0.377 | – | 0.055 | 415 | 0 | – | – | – | – | – | – | – | – | 61.2 | 113 | 295 | 33.9 | EC50 [2]: 25 nM
2 | COCC(C(=O)Nc1cc(Cl)c(-c2ccc(S(C)(=O)=O)cc2)c(Cl)c1)c1ccc(S(=O)(=O)CC2CC2)cc1 (centres unmarked) [Example 18, 2-(4-((Cyclopropylmethyl)sulfonyl)phenyl)-N-(2,6-dichloro-4′-(methylsulfonyl)-[1,1′-biphenyl]-4-yl)-3-methoxypropionamide] | 15.10 | 0.402 | 784 | 0.192 | 121 | 2 | – | – | – | – | – | – | – | – | 57.6 | 29.4 | 193 | 137 | –

Now from value to compound, other results behind:

Row | % Remaining (T = 60 min) [1] [%] | half-life [1] [h] | EC50 [2, 5] [nM] | half-life [3] [h] | microsomal CLint [3] [µL/min/mg] | % Remaining (T = 60 min) [3] [%] | AUC(0-t) ([4]; IV 1 mg/kg) [ng·h/mL] | Cmax ([4]; IV 1 mg/kg) [ng/mL] | half-life ([4]; IV 1 mg/kg) [h] | Vd ([4]; IV 1 mg/kg) [L/kg] | bioavailability [4] [%] | AUC(0-t) ([4]; Po 5 mg/kg) [ng·h/mL] | Cmax ([4]; Po 5 mg/kg) [ng/mL] | half-life ([4]; Po 5 mg/kg) [h] | SMILES | microsomal CLint [1] [µL/min/mg] | EC50 (human PBMC (Th17 cells)) [nM] | Emax (human PBMC (Th17 cells)) [%] | Emax [2] [%] | also measured
3 | 71 | 2.11 | > 3000 | > 2.42 | < 9.6 | 107.4 | – | – | – | – | – | – | – | – | CCS(=O)(=O)c1ccc(-c2c(Cl)cc(NCC(C(=O)O)c3ccc(S(=O)(=O)CC)cc3)cc2Cl)cc1 (centres unmarked) [Example 12-1, 3-(2,6-Dichloro-4′-(ethylsulfonyl)-[1,1′-biphenyl]-4-amino)-2-(4-(ethylsulfonyl)phenyl)propionic acid] | – | – | – | – | EC50 (GST-RORγ LBD (263-509); TR-FRET, GST-RORγ LBD with Biotin-SRC1): 6.8 nM; Emax (GST-RORγ LBD (263-509); maximum activation rate, TOP of fitted curve): 186%
4 | 82.60 | > 2.42 | 202 | 1.3 | 17.8 | 58.7 | 2300 | 1440 | 1.23 | 0.71 | 40 | 4240 | 1060 | 2.32 | CCS(=O)(=O)c1ccc(C(COC)C(=O)Nc2cc(Cl)c(-c3ccc(S(C)(=O)=O)cc3)c(Cl)c2)cc1 (centres unmarked) [Example 15, N-(2,6-Dichloro-4′-(methylsulfonyl)-[1,1′-biphenyl]-4-yl)-2-(4-(ethylsulfonyl)phenyl)-3-methoxypropionamide] | < 9.6 | 45.1 | 197 | 79.5 | –
5 | 23.10 | 0.487 | 123 | 1.78 | 13 | 60 | 647 | 932 | 0.63 | 1.09 | 29.7 | 924 | 419 | 1.51 | CCS(=O)(=O)c1ccc(-c2c(Cl)cc(NC(=O)C(COC)c3ccc(S(C)(=O)=O)cc3)cc2Cl)cc1 (centres unmarked) [Example 19, N-(2,6-Dichloro-4′-(ethylsulfonyl)-[1,1′-biphenyl]-4-yl)-3-methoxy-2-(4-(methylsulfonyl)phenyl)propionamide] | 47.4 | 32.1 | 232 | 91.4 | CL_obs ([4]; IV 1 mg/kg, values marked **): 26.0** mL/min/kg
